Consider nine compounds from patent US7416724B2, “Diagnosis and treatment of diseases arising from defects in the tuberous sclerosis pathway” (The Regents of the University of Michigan, priority 2002, dated 2008).

“Also recorded” adds a separate entry of the source. Like-named read-outs stand apart in the source and are kept apart here.

For assay [1], the system named is S6K. In words: Phosphorylation of S6K, immunoblot with anti-phospho S6K antibody. It is filed as cell-based. To be noted: for phosphorylation of S6K on T389: endogenous S6K. An excerpt: (§1) Anti-S6K, anti-phospho S6K, anti-mTOR, anti-phospho mTOR, anti-Akt, anti-phospho Akt, antiphospho 4EBP-1 and anti-phospho ERK antibodies were from Cell Signalling Inc. Anti-TSC2 and anti-Myc antibodies were from Santa Cruz Biotechnology (Santa Cruz, Calif.). Anti-HA and anti-Flag antibodies were from Covance (Princeton, N.J.) and Sigma (St Louis, Mo.), respectively. HA-tagged S6K1 (II) and GST-S6 constructs were obtained from J. Blenis (Columbia Univ., NY, N.Y.). […] All other DNA constructs, including H-RasV12, PTEN, PTEN-CS, Akt, Akt-KM, Flag-ubiquitin and Flag-4E-BP1, were laboratory stock. All mutant constructs of TSC2 were created by PCR mutagenesis and verified by DNA sequencing. LY294002 was from Calbiochem (San Diego, Calif.); phosphatase was from New England Biolabs (Beverly, Mass.). MG132 was from the Peptide Institute. Cycloheximide and wortmannin were from Sigma. D-PBS was from Gibco. Rapamycin was from Cell Signalling.
(§2) HEK293 cells were seeded and maintained in Dulbecco's modified Eagle's medium (DMEM) containing 10% fetal bovine serum (FBS). Transfection was performed in serum-free conditions using Lipofectamine reagent (Invitrogen, Carlsbad, Calif.) in accordance with the manufacturer's instructions. In brief, 4 h after transfection, the cells were recovered in DMEM containing 10% FBS for 16 h and then starved for […]. Cells were then lysed in lysis buffer (10 mM Tris-HCl at pH 7.5, 100 mM sodium chloride, 1% NP-40, 1% Triton X-100, 50 mM sodium fluoride, 2 mM EDTA, 1 mM phenyl methylsulphonyl fluoride, 10 g ml^−1 leupeptin and 10 g ml^−1 aprotinine) and immunoprecipitated with the indicated antibodies and protein G-Sepharose beads. Immunocomplexes were analyzed by SDS-polyacrylamide gel electrophoresis (PAGE).
(In general: In western blotting, separated proteins are transferred to a membrane and probed.)

Assay [2] has as its system TSC2. The experiment in a line: In vivo 32P-labelling and two-dimensional phosphopeptide mapping of TSC2. The assay is classed as cell-based, rat. How it is done: HEK293 cells were cotransfected with HA-tagged TSC2, Myc-tagged TSC1 and the indicated plasmids. Cells were phosphate- and serum-starved for 4 h before incubation with 0.25 mCi ml^−1 32P-orthophosphate (ICN) for 4 h.
Cells were washed once with ice-cold PBS and lysed. HA-tagged TSC2 was immunoprecipitated, resolved by SDS-PAGE and transferred to a PVDF membrane. Phosphorylated TSC2 was visualized by autoradiography and phosphopeptide mapping was then performed. In brief, the phosphorylated TSC2 bands were excised, fixed in methanol and incubated in 500 1 of 0.5% polyvinylpyrrolidone-40 dissolved in 100 mM acetic acid for 30 min at 37° C. The sample were then digested with 20 g of TPCK-treated trypsin (Sigma) at 37° C. in 75 mM ammonium bicarbonate buffer at pH 8.0 containing 5% acetonitrile. After digestion, samples were dried under vacuum and suspended in 10 1 of water. Samples were spotted onto a cellulose plate and first dimensional electrophoresis was performed using 1% ammonium bicarbonate buffer at pH 8.9. The plates were separated by chromatography in the second dimension in chromatography buffer (n-butanol:pyridine:acetic acid:water; 20:24:6:30). The plates were dried and phosphopeptides were visualized by autoradiography.

The subject of assay [3] is 4EBP1. In words: Phosphorylation of 4EBP1, immunoblot. The assay is classed as cell-based.
Source text: as §1, §2

Assay [4] relates to TSC1. The experiment in a line: TSC1 mobility on SDS-PAGE. The assay is classed as cell-based. The following applies: FIG. 11A. How it is done: as §2
Assay [5] has as its system eukaryotic elongation factor 2 (eEF2). To be noted: Horman et al., 2002; cited from earlier work.
The subject of assay [6] is AMPK. The experiment in a line: AMPK activation (T172 phosphorylation). The assay is classed as cell-based. The following applies: 25 mM.
The test system of assay [7] is S6K. To be noted: concentrations between 20 and 100 mM (Dennis et al., 2001); cited from earlier work.
The subject of assay [8] is S6. The experiment in a line: Phosphorylation of S6, immunoblot. The assay is classed as cell-based. To be noted: FIG. 8C. The method, then:
as §2

The subject of assay [9] is TSC2. The experiment in a line: TSC2 mobility shift on SDS-PAGE. The following applies: for mobility of TSC2 / 2-DG induced mobility shift: HEK293 cells, 10 μM, added 30 minutes before 2-DG, FIG. 11C. The assay is classed as cell-based. How it is done: as §2
Assay [10] has as its system S6K. The following applies: Kimura et al., 2003; Krause et al., 2002; cited from earlier work.
Assay [11] concerns 4EBP1. To be noted: concentrations between 20 and 100 mM (Dennis et al., 2001); cited from earlier work.
Assay [12] concerns Akt. The experiment in a line: Phosphorylation of Akt, immunoblot. The assay is classed as cell-based.
Source text: as §1
(§3) HEK293 cells were seeded and maintained in Dulbecco's modified Eagle's medium (DMEM) containing 10% fetal bovine serum (FBS). Transfection was performed in serum-free conditions using Lipofectamine reagent (Invitrogen, Carlsbad, Calif.) in accordance with the manufacturer's instructions. […] Immunocomplexes were analyzed by SDS-polyacrylamide gel electrophoresis (PAGE).

Assay [13] relates to AMPK. The following applies: Corton et al., 1995; cited from earlier work.
The subject of assay [14] is mTOR. The experiment in a line: Phosphorylation of mTOR at Ser 2448, immunoblot with anti-phospho-mTOR antibody. It is filed as cell-based. The following applies: 25 mM, FIG. 8C.
Source text: as §1, §3

In assay [15] the test system is intracellular ATP. In words: Intracellular ATP levels and AMP/ATP ratio. To be noted: cells treated with 25 mM. It is filed as cell-based.
In assay [16] the test system is AMPK and TSC2. The experiment in a line: Co-immunoprecipitation of AMPK and TSC2. The assay is classed as cell-based. How it is done:
as §2

Assay [17] deals with intracellular ATP. To be noted: concentrations between 20 and 100 mM (Dennis et al., 2001); cited from earlier work.
For assay [18], the system named is HEK293 cells. The experiment in a line: Cell size of HEK293 cells. The assay is classed as cell-based. To be noted: 12.5 mM 2-DG, TSC2 RNAi, or 20 nM rapamycin for 72 hours, FIG. 14D.
Assay [19] has as its system S6K-dC104. In words: Thr 389 phosphorylation and kinase activity of rapamycin-resistant mutant S6K-dC104. The assay is classed as cell-based. The following applies: FIG. 7a. The method, then:
For the S6K assays, HEK293 cells grown in six-well plates were transfected with 10-20 ng HA-S6K constructs, with or without various plasmids, as indicated in the figures. HA-S6K was immunoprecipitated from serum-starved cells with an anti-HA antibody and analyzed by in vitro kinase assay using purified GST-S6 as a substrate (Pearson et al., EMBO J. 14, 5279-5287 (1995)).

The subject of assay [20] is LEF (TSC2-/- epithelial) cells. In words: Cell death / apoptosis of LEF cells. It is filed as cell-based. The following applies: vector and wild type TSC2 expressing LEF cells.
Where [21] appears, read: depletion of cellular ATP, FIG. 8A.
The mark [22] stands for this setting: EEF8 (TSC2-/-) fibroblasts, vector infected, FIG. 13C.
[23] abbreviates: EEF8 cells expressing wild type TSC2, FIG. 13C.

In the case of “insulin: stimulus of the insulin-Akt pathway, used at 400 nM”, in assay [1] (FIG. 1b), the “phosphorylation of Thr 389, Thr 421 and Ser 424 of S6K” value is on record as “stimulated”. Further, in assay [2] (insulin (400 nM), LY294002 or rapamycin (20 nM), FIG. 3c), the “phosphorylation of TSC2 phosphopeptides” value was “slightly increased phosphorylation”.
Consider `CC(=O)c1c(O)c(C)c(O)c(Cc2c(O)c3c(c(C(=O)/C=C/c4ccccc4)c2O)OC(C)(C)C=C3)c1O` [Rottlerin], for which the S6K phosphorylation result in assay [1] (EEF4 (TSC2+/+) fibroblasts, FIG. 10F) is “caused a decrease”. Also, in assay [1] (setting [21]), the “phosphorylation of S6K” value is given as “caused a dephosphorylation”. For the same compound, the “phosphorylation of 4EBP1” value in assay [3] (setting [21]) was “caused a dephosphorylation”.
`O=CC[C@@H](O)[C@H](O)[C@H](O)CO` [2-DG, 2-deoxy-glucose]: the “mobility of TSC1” value in [4] is “did not alter the mobility”. Besides, the “phosphorylation of eEF2” value in [5] is given as “increase phosphorylation”. Also, in assay [1] (25 mM, FIG. 8C), the “phosphorylation of S6K on T389” value is recorded as “effectively inhibited; also recorded: dephosphorylation”. In addition, in [1] (25 mM, time course, FIG. 8E), the “S6K phosphorylation as a function of treatment time” value is listed as “concomitant dephosphorylation”. Also, the figures for the S6K phosphorylation result in assay [1] (setting [22]), in assay [1] (setting [23]) and in assay [7] were “caused little decrease”, “significantly decreased” and “inhibition”, respectively. Further, in assay [1] (setting [21]), the “phosphorylation of S6K” value is listed as “caused a dephosphorylation”. For the same compound, the “T172 phosphorylation in AMPK” value in [6] (FIG. 8D) is “dramatic increase; also recorded: induces phosphorylation”. Moreover, in [6] (time course, FIG. 8E), the “AMPK activation as a function of treatment time” value is reported as “rapid AMPK activation”. For the same compound, the “phosphorylation of endogenous S6” value in assay [8] is “dephosphorylation”. Further, in assay [9] (FIG. 11A), the “mobility shift of TSC2” value is reported as “mobility shift”. Besides, the S6K activity result in assay [10] is recorded as “inhibit S6K activity”. The 4EBP1 phosphorylation result is “inhibition” in assay [11]; “inhibition of phosphorylation” in [3] (EEF4 (TSC2+/+) cells, FIG. 10G); “caused little decrease” in [3] (setting [22]); “significantly decreased” in assay [3] (setting [23]). In assay [12] (25 mM, FIG. 8C), the Akt phosphorylation result was “had little effect”. Further, in assay [13], the AMPK activation result is “activate AMPK”. Further, in assay [14], the “phosphorylation of mTOR S2448” value is “inhibited; also recorded: dephosphorylation”. Moreover, the ATP levels entry in assay [15] (FIG. 8F) is recorded as “statistically significant reduction; also recorded: decreases”. The AMP/ATP ratio result in assay [15] (FIG. 8G) is recorded as “increases”. The “interaction between endogenous AMPK and overexpressed TSC2” value in assay [16] (FIG. 9D) was “enhances the interaction”. Further, in [16] (HEK293 cells, FIG. 9A, B), the “interaction between endogenous AMPK and TSC2 (co-immunoprecipitation)” value is on record as “interact preferentially; also recorded: enhanced; also recorded: stimulates the interaction”. For the same compound, the “phosphorylation of endogenous 4EBP1” value in assay [3] (FIG. 8C) was “specifically inhibits; also recorded: dephosphorylation”. Moreover, the “phosphorylation of 4EBP1” value in assay [3] (setting [21]) is “caused a dephosphorylation”. In assay [17], the “reduction of intracellular ATP levels” value is on record as 20 to 50%. The “phosphorylation of TSC2 phosphopeptides” value in assay [2] (25 and 40 mM, FIG. 12A) was “enhanced phosphorylation of several peptides; also recorded: induce TSC2 phosphorylation on multiple spots”. For the same compound, in assay [18], the cell size entry was “decreases cell size; also recorded: significantly decreased cell size”.
In the case of `NC(=O)c1ncn([C@@H]2O[C@H](COP(=O)(O)O)[C@@H](O)[C@H]2O)c1N` [AICAR, 5-aminoimidazole-4-carboxyamide ribonucleotide], the “phosphorylation of eEF2” value in [5] is “increase phosphorylation”. In addition, the S6K activity entry in assay [10] was “inhibit S6K activity”. The AMPK activation result in assay [13] is reported as “activate AMPK”.
Take `CO[C@H]1C[C@@H]2CC[C@@H](C)[C@@](O)(O2)C(=O)C(=O)N2CCCC[C@H]2C(=O)O[C@H]([C@H](C)C[C@@H]2CC[C@@H](O)[C@H](OC)C2)CC(=O)[C@H](C)/C=C(\C)[C@@H](O)[C@@H](OC)C(=O)[C@H](C)C[C@H](C)/C=C/C=C/C=C/1C` [rapamycin]: the “phosphorylation of Thr 389 in S6K-dC104” value in assay [19] is “not inhibited”.
Consider `COc1cc([C@@H]2c3cc4c(cc3[C@@H](O[C@@H]3O[C@@H]5CO[C@@H](C)O[C@H]5[C@H](O)[C@H]3O)[C@H]3COC(=O)[C@H]23)OCO4)cc(OC)c1O` [etoposide], for which, in assay [20], the cell death result is on record as “caused cell death”.
In the case of `N#CC(C#N)=NNc1ccc(OC(F)(F)F)cc1` [FCCP], in assay [1], the S6K phosphorylation result was “caused a decrease” and the “phosphorylation of S6K” value was “caused a dephosphorylation”. In addition, the “phosphorylation of 4EBP1” value in assay [3] is given as “caused a dephosphorylation”.
For the compound `OC[C@@H](O)[C@@H](O)[C@H](O)[C@H](O)CO` [mannitol], the “phosphorylation of S6K on T389” value in assay [1] (25 mM, FIG. 8C) is “had little effect”. Further, the “phosphorylation of S6K” value in assay [1] (100 mM, FIG. 8C) was “significantly inhibited”.
In the case of `c1cc(-c2cnn3cc(-c4ccc(OCCN5CCCCC5)cc4)cnc23)ccn1` [Compound C], the “S6K dephosphorylation induced by glucose deprivation” value in assay [1] (FIG. 11F, listed as AMPK inhibitor) is recorded as “significantly blocked; also recorded: partially blocks”. In addition, the “inhibitory effect of 2-DG on S6K phosphorylation” value in [1] (HEK 293 cells, FIG. 11E, listed as AMPK inhibitor) is on record as “significantly reversed; also recorded: blocks the 2-DG induced dephosphorylation”. Further, the “mobility of TSC2 / 2-DG induced mobility shift” value in assay [9] is “blocks the 2-DG induced mobility shift”; in assay [9] (listed as compound C), “increased the mobility”. Also, the Akt phosphorylation entry in assay [12] (HEK 293 cells, AMPK inhibitor treatment) was “had no effect”.
